Test results published in patent US11685744B2, “CDK inhibitors and their use as pharmaceuticals” (Prelude Therapeutics, Incorporated, priority 2020, dated 2023).
pIC50: −log10 of the molar value. Like-named read-outs stand apart in the source and are kept apart here.

Tests used:
[1] = tested on: MCF7 adenocarcinoma cell line; experiment: Cell proliferation studies in MCF7 cells (ATP-Lite, 10 days); assay type: cell-based; details: read-out: PROLIFERATION_CTG_MCF7 IC50
Protocol: Cell Proliferation Studies in MCF7 Cells
Cell proliferation studies were conducted in MCF7 adenocarcinoma cell line. Cells were maintained in DMEM (Coming, Catalog #: 10-013-CV) supplemented with 10% v/v FBS (Gibco, Catalog #: 26140-079), 1% v/v Penicillin Streptomycin (Gibco, Catalog #15140-122) Cells were seeded in 384-well plates at a density of 100 or 200 cells/well. Compounds dissolved in DMSO were plated in quadruplicate using a digital dispenser (D300E, Tecan) and tested on a 9-point 3-fold serial dilution. Cells were incubated for 10 days in a 37° C. active humidified incubator at 5% CO2. A media exchange and second compound addition were performed on day 5. Cell viability was measured using the ATP-Lite 1-Step Luminescence reagent (Perkin Elmer, Catalog #: 6016731) as per manufacturer's instructions. Luminescence signal was measured with a multimode plate reader (Envision 2105, Perkin Elmer). Raw data files were imported to Dotmatics Screening Ultra for IC50 analysis. Luminescence values were normalized to both background and DMSO controls to obtain a percentage of viable cells relative to DMSO vehicle control.

CDK6/Cyclin D1 = CDK6/Cyclin D1 (Homo sapiens (Human), UniProt Q00534); experiment: CDK6/CyclinD1 enzymatic activity assay (TR-FRET); assay type: biochemical; details: ATP 250 μM, read-out: CDK6_D1 IC50
Chain of CDK6/Cyclin D1 (Q00534 whole entry): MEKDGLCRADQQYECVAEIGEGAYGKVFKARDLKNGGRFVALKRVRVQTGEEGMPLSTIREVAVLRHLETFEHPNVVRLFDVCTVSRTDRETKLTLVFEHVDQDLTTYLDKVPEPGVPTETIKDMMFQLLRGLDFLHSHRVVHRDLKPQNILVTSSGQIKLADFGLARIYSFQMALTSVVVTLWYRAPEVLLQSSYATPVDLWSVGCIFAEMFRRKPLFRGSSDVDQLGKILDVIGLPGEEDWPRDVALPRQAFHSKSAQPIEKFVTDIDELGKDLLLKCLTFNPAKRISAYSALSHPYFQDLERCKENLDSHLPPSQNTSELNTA
Chain of CDK6/Cyclin D1 (P24385 whole entry partner): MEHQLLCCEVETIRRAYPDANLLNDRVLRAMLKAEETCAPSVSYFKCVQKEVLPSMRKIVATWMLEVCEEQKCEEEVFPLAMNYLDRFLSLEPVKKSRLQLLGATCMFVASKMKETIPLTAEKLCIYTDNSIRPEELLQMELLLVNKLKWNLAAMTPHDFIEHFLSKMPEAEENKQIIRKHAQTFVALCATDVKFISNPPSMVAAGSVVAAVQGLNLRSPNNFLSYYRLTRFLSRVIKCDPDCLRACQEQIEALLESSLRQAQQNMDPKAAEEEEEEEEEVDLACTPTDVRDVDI
Protocol: CDK6/CyclinD1 Enzymatic Activity Assay
(§1) The inhibitory activity of compounds was evaluated in vitro using TR-FRET assay with white 384-well low volume microplate (Greiner Bio-One). CDK6/Cyclin D1 catalyzed phosphorylation of peptide in the presence and absence of compounds was measured and used in IC50 determination. Recombinant protein complex CDK6/Cyclin D1, expressed from insect cell, was purchased from ProQinase. Testing compounds were dissolved in DMSO at 0.1 mM and tested in 9-dose IC50 mode. The reaction mixture was prepared by mixing CDK6/Cyclin D1 (1 nM final), ULight-4E-BP1 (100 nM final, Perkinelmer, TRF0128-D), and ATP (250 μM final) in assay buffer (20 mM of HEPES pH 7.4, 1 mM of EGTA, 0.05% BSA, 0.005% Tween 20, and 1 mM TCEP). The compound of interest in DMSO was added to each well in 3-fold serial dilution by dispenser (TECAN D300E). After 20 minutes preincubation at room temperature, 0.1 μL MgCl2 (10 mM final) was added to initiate the reaction. Following a 60 minutes incubation at 37° C., the reaction was stopped by addition of 2 μL of quenching buffer consisting of Lance detection buffer (Perkinelmer CR97-100C), 2 nM LANCE Ultra Europium-anti-P-4E-BP1 (Perkinelmer, TRF0216-D), 10 mM EDTA, and incubate at room temperature for additional 60 minutes in dark. The reaction signal was measured by Envision multimode plate reader (PerkinElmer, 2102-0010). IC50 values were determined by fitting the data to the standard 4 parameters with Hill Slope using GraphPad Prism software.

CDK4/Cyclin D1 = CDK4/Cyclin D1 (Homo sapiens (Human), UniProt P11802); experiment: CDK4/CyclinD1 enzymatic activity assay (TR-FRET); assay type: biochemical; details: ATP 2 mM, read-out: CDK4_D1 IC50
Chain of CDK4/Cyclin D1 (P11802 whole entry): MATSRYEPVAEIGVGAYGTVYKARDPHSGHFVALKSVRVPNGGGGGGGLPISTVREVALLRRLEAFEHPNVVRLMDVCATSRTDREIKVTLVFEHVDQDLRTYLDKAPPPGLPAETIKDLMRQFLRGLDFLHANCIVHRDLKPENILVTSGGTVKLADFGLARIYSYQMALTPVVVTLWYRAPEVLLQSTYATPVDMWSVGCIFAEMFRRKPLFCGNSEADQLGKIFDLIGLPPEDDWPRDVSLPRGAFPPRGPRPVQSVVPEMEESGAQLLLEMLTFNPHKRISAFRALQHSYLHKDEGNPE
Chain of CDK4/Cyclin D1 (P24385 whole entry partner): as the sequence (P24385 whole entry partner) above
Protocol: CDK4/CyclinD1 Enzymatic Activity Assay
as §1, with “Bio-One). CDK4/Cyclin” for “Bio-One). CDK6/Cyclin”, “was measured.” for “was measured and used in”, “complex CDK4/Cyclin” for “complex CDK6/Cyclin”, “mixing CDK4/CyclinD1” for “mixing CDK6/Cyclin D1”, “ATP (2 mM” for “ATP (250 μM”, “temperature,” for “temperature, 0.1 μL”

Q: Which results are given for “4-(2,6-Dimethyl-3-propan-2-ylthieno[2,3-d]imidazol-5-yl)-N-[5-(4-ethyl-6,6-difluoro-1,4-diazepan-1-yl)pyridin-2-yl]-5-fluoropyrimidin-2-amine [Example 68]”?
A: pIC50 [1]: 6.70 to 7.70; pIC50 (CDK6/Cyclin D1): ≥ 7.70

Q: `Cc1c(-c2nc(Nc3ccc(C4CCCN(C)C4)cn3)ncc2F)sc2c1ncn2C(C)C` (single isomer, unassigned) [Example 126, 5-Fluoro-N-[5-[-1-methylpiperidin-3-yl]pyridin-2-yl]-4-(6-methyl-3-propan-2-ylthieno[2,3-d]imidazol-5-yl)pyrimidin-2-amine] was tested. Which pIC50 (CDK4/Cyclin D1) did it give?
A: The pIC50 was ≥ 7.70.

Q: What about the pIC50 [1] of the same compound?
A: The pIC50 was 6.70 to 7.70.

Q: What about the pIC50 (CDK6/Cyclin D1) of the same compound?
A: Its pIC50 is ≥ 7.70.

Q: With `CCN1CCN(c2ccc(Nc3ncc(F)c(-c4cc5nccc(C(C)(C)O)c5s4)n3)nc2)CC1` [Example 17, 2-[2-[2-[[5-(4-Ethylpiperazin-1-yl)pyridin-2-yl]amino]-5-fluoropyrimidin-4-yl]thieno[3,2-b]pyridin-7-yl]propan-2-ol] as the compound, how does the pIC50 (CDK4/Cyclin D1) read?
A: The pIC50 was ≥ 7.70.

Q: What about the pIC50 ([1]; Homo sapiens, 240 h) of the same compound?
A: Its pIC50 is 6.70 to 7.70.

Q: What about the pIC50 (CDK6/Cyclin D1) of the same compound?
A: Its pIC50 is 6.70 to 7.70.

Q: With `CN1CCC(c2ccc(Nc3ncc(F)c(-c4cc5c(C6CCCC6)ccnc5s4)n3)nc2)CC1` [Example 43, 4-(4-Cyclopentylthieno[2,3-b]pyridin-2-yl)-5-fluoro-N-(5-(1-methylpiperidin-4-yl)pyridin-2-yl)pyrimidin-2-amine] as the compound, how does the pIC50 (CDK4/Cyclin D1) read?
A: The pIC50 was 6.70 to 7.70.

Q: What about the pIC50 ([1]; Homo sapiens, 240 h) of the same compound?
A: The pIC50 was 5.70 to 6.70.

Q: What does the source list for `CCN1CCN(c2ccc(Nc3ncc(F)c(-c4cc5c(C6CCCC6)ccnc5s4)n3)nc2)CC1` [Example 44, 4-(4-Cyclopentylthieno[2,3-b]pyridin-2-yl)-N-[5-(4-ethylpiperazin-1-yl)pyridin-2-yl]-5-fluoropyrimidin-2-amine]?
A: pIC50 (CDK4/Cyclin D1): 6.70 to 7.70; pIC50 ([1]; Homo sapiens, 240 h): 5.70 to 6.70

Q: Which results are given for `CN1CCN(c2ccc(Nc3ncc(F)c(-c4cc5c(C6CCCC6)ccnc5s4)n3)nc2)CC1` [Example 45, 4-(4-Cyclopentylthieno[2,3-b]pyridin-2-yl)-5-fluoro-N-[5-(4-methylpiperazin-1-yl)pyridin-2-yl]pyrimidin-2-amine]?
A: pIC50 (CDK4/Cyclin D1): 6.70 to 7.70; pIC50 ([1]; Homo sapiens, 240 h): 5.70 to 6.70

Q: With `Fc1cnc(Nc2ccc(N3CCNCC3)cn2)nc1-c1cc2c(C3CCCC3)ccnc2s1` [Example 46, 4-(4-Cyclopentylthieno[2,3-b]pyridin-2-yl)-5-fluoro-N-(5-piperazin-1-ylpyridin-2-yl)pyrimidin-2-amine] as the compound, how does the pIC50 (CDK4/Cyclin D1) read?
A: Its pIC50 is 6.70 to 7.70.

Q: What about the pIC50 ([1]; Homo sapiens, 240 h) of the same compound?
A: Its pIC50 is 5.70 to 6.70.

Q: How did the pIC50 (CDK4/Cyclin D1) turn out when `CCN1CC2(C1)CN(c1ccc(Nc3ncc(F)c(-c4cc5c(C6CCCC6)ccnc5s4)n3)nc1)C2` [Example 47, 4-(4-Cyclopentylthieno[2,3-b]pyridin-2-yl)-N-[5-(6-ethyl-2,6-diazaspiro[3.3]heptan-2-yl)pyridin-2-yl]-5-fluoropyrimidin-2-amine] was run?
A: The pIC50 was 6.70 to 7.70.

Q: What about the pIC50 ([1]; Homo sapiens, 240 h) of the same compound?
A: Its pIC50 is 5.70 to 6.70.

Q: How did the pIC50 (CDK4/Cyclin D1) turn out when `Cc1c(-c2nc(Nc3ccc(N4CCN(C)CC4)cn3)ncc2F)sc2c(C3CCCC3)nccc12` [Example 48, 4-(7-Cyclopentyl-3-methylthieno[2,3-c]pyridin-2-yl)-5-fluoro-N-(5-(4-methylpiperazin-1-yl)pyridin-2-yl)pyrimidin-2-amine] was run?
A: Its pIC50 is 5.70 to 6.70.

Q: What about the pIC50 ([1]; Homo sapiens, 240 h) of the same compound?
A: The pIC50 was 5.70 to 6.70.

Q: `Cc1c(-c2nc(Nc3ccc(C4CCN(C)CC4)cn3)ncc2F)sc2c(C3CCCC3)ncnc12` [Example 49, 4-(4-Cyclopentyl-7-methylthieno[3,2-d]pyrimidin-6-yl)-5-fluoro-N-(5-(1-methylpiperidin-4-yl)pyridin-2-yl)pyrimidin-2-amine] was tested. Which pIC50 (CDK4/Cyclin D1) did it give?
A: The pIC50 was 5.70 to 6.70.

Q: What about the pIC50 ([1]; Homo sapiens, 240 h) of the same compound?
A: The pIC50 was 5.70 to 6.70.

Q: What does the source list for `CCN1CC2(C1)CN(c1ccc(Nc3ncc(F)c(-c4sc5c(C(C)C)nn(C)c(=O)c5c4C)n3)nc1)C2` [Example 63, 2-(2-((5-(6-Ethyl-2,6-diazaspiro[3.3]heptan-2-yl)pyridin-2-yl)amino)-5-fluoropyrimidin-4-yl)-7-isopropyl-3,5-dimethylthieno[2,3-d]pyridazin-4(5H)-one]?
A: pIC50 (CDK4/Cyclin D1): 6.70 to 7.70; pIC50 ([1]; Homo sapiens, 240 h): 5.70 to 6.70

Q: How did the pIC50 (CDK4/Cyclin D1) turn out when `Cc1c(-c2nc(Nc3ccccn3)ncc2F)sc2c1nc(C)n2C(C)C` [Example 66, 4-(2,6-Dimethyl-3-propan-2-ylthieno[2,3-d]imidazol-5-yl)-5-fluoro-N-pyridin-2-ylpyrimidin-2-amine] was run?
A: Its pIC50 is 6.70 to 7.70.

Q: What about the pIC50 (CDK6/Cyclin D1) of the same compound?
A: Its pIC50 is 6.70 to 7.70.

Q: Which results are given for `Cc1c(-c2nc(Nc3ccc(N4CCN5CCC4CC5)cn3)ncc2F)sc2c(C(C)C)cn(C)c(=O)c12` [Example 83, 2-(2-((5-(1,4-Diazabicyclo[3,2.2]nonan-4-yl)pyridin-2-yl)amino)-5-fluoropyrimidin-4-yl)-7-isopropyl-3,5-dimethylthieno[3,2-c]pyridin-4(5H)-one]?
A: pIC50 (CDK4/Cyclin D1): ≥ 7.70; pIC50 ([1]; Homo sapiens, 240 h): 6.70 to 7.70

Q: Which results are given for `CC(C)c1cn(C)c(=O)c2cc(-c3ccnc(Nc4ccc(C5CCN(C)CC5)cn4)n3)sc12` [Example 96, 7-Isopropyl-5-methyl-2-(2-((5-(1-methylpiperidin-4-yl)pyridine-2-yl)amino)pyrimidin-4-yl)thieno[3,2-c]pyridin-4(5H)-one]?
A: pIC50 (CDK4/Cyclin D1): 6.70 to 7.70; pIC50 ([1]; Homo sapiens, 240 h): 5.70 to 6.70

Q: Which results are given for `Cc1c(-c2nc(Nc3ccc(C4CC[N+](C)([O-])CC4)cn3)ncc2F)sc2c(C(C)C)cn(C)c(=O)c12` (stereo not shown) [Example 98, 4-(6-((5-Fluoro-4-(7-isopropyl-3,5-dimethyl-4-oxo-4,5-dihydrothieno[3,2-c]pyridin-2-yl)pyrimidin-2-yl)amino)pyridin-3-yl)-1-methylpiperidine 1-oxide]?
A: pIC50 (CDK4/Cyclin D1): ≥ 7.70; pIC50 ([1]; Homo sapiens, 240 h): 6.70 to 7.70

Q: With `CCN1CCN(Cc2ccc(Nc3ncc(F)c(-c4sc5c(C(C)C)[nH]nc5c4C)n3)nc2)CC1` [Example 100, N-(5-((4-Ethylpiperazin-1-yl)methyl)pyridin-2-yl)-5-fluoro-4-(3-isopropyl-6-methyl-2H-thieno[3,2-c]pyrazol-5-yl)pyrimidin-2-amine] as the compound, how does the pIC50 (CDK4/Cyclin D1) read?
A: Its pIC50 is 6.70 to 7.70.

Q: What about the pIC50 ([1]; Homo sapiens, 240 h) of the same compound?
A: Its pIC50 is 5.70 to 6.70.

Q: What does the source list for `CCN1CC2(C1)CN(c1ccc(Nc3ncc(F)c(-c4sc5c(C(C)(C)OC)n(C)nc5c4C)n3)nc1)C2` [Example 105, N-(5-(6-Ethyl-2,6-diazaspiro[3.3]heptan-2-yl)pyridin-2-yl)-5-fluoro-4-(3-(2-methoxypropan-2-yl)-2,6-dimethyl-2H-thieno[3,2-c]pyrazol-5-yl)pyrimidin-2-amine]?
A: pIC50 (CDK4/Cyclin D1): ≥ 7.70; pIC50 ([1]; Homo sapiens, 240 h): 6.70 to 7.70

Q: `CCN1CC2(C1)CN(c1ccc(Nc3ncc(F)c(-c4sc5c(nc(N(C)C)n5C(C)C)c4C)n3)nc1)C2` [Example 111, 5-(2-((5-(6-Ethyl-2,6-diazaspiro[3.3]heptan-2-yl)pyridin-2-yl)amino)-5-fluoropyrimidin-4-yl)-3-isopropyl-N,N,6-trimethyl-3H-thieno[2,3-d]imidazol-2-amine] was tested. Which pIC50 (CDK4/Cyclin D1) did it give?
A: The pIC50 was 6.70 to 7.70.

Q: What about the pIC50 ([1]; Homo sapiens, 240 h) of the same compound?
A: Its pIC50 is 6.70 to 7.70.

Q: How did the pIC50 (CDK4/Cyclin D1) turn out when `Cc1c(-c2nc(Nc3ccc(C4CN(C)CCO4)cn3)ncc2F)sc2c1nc(C)n2C(C)C` (stereo not shown) [Example 115, 5-Fluoro-4-(3-isopropyl-2,6-dimethyl-3H-thieno[2,3-d]imidazol-5-yl)-N-(5-(4-methylmorpholin-2-yl)pyridin-2-yl)pyrimidin-2-amine] was run?
A: Its pIC50 is ≥ 7.70.

Q: And the pIC50 [1]?
A: Its pIC50 is 6.70 to 7.70.
